Experimental data as given in article PMC9249808, “A novel lipidic peptide with potential to promote balanced effector-regulatory T cell responses” (Scientific Reports, 2022).
Non-standard residues stand in square brackets, D forms with d. Residues, ends and D or L forms follow the SMILES beside them. Gly(decyl) = CCCCCCCCCC[C@H](N)C(=O)O

How the values were obtained:
HPK1 (MAP4K1) = target: T1, HPK1 (MAP4K1) (Homo sapiens, UniProt Q92918); test: Kinase profiling, HPK1; type: biochemical
T1 construct: purchased Eurofins (France), KinaseProfiler service
Protocol: (§1) Non-cell-based kinase profiling assays were performed by Eurofins (France). All compounds were prepared to 50 × final assay concentration in 100% DMSO. This working stock of the compound was added to assay wells as the first component in the reaction, followed by the remaining components as detailed in the specific assay protocols below. In the standard KinaseProfiler service, there was no pre-incubation step between the compound and the kinase prior to initiation of the reaction. Control wells contained all components of the reaction, except the compound of interest; however, DMSO (at a final concentration of 2%) was included in these wells to control for solvent effects. […] The reference inhibitors for each kinase are indicated in the methods for each kinase assay. […] Kinase activities were assessed in the presence of compounds at a concentration range of 0.003 -10 uM and the following kinases were tested: c-Src, Lck, Jak1, Jak2, Tyk2, CaMKIV and HPK1 (MAP4K1). Reactions between IK14004, substrates and MgAcetate/[γ^33P-ATP] mixes for each respective kinase were stopped by the addition of phosphoric acid and reaction mixtures spotted on P30 filtermats for scintillation according to the detailed methods available from Eurofins. The activities of Lck and c-Src were also assessed in the presence of the unconjugated components of IK14004, i.e., […] […]

CaMKIV = target: T2, CaMKIV (Homo sapiens, UniProt Q16566); test: Kinase profiling, CaMKIV; type: biochemical
T2 construct: purchased Eurofins (France), KinaseProfiler service
Protocol: as §1

JAK1 = target: T3, JAK1 (Homo sapiens, UniProt P23458); test: Kinase profiling, JAK1; type: biochemical
T3 construct: purchased Eurofins (France), KinaseProfiler service
Protocol: as §1

Tyk2 = target: T4, Tyk2 (Homo sapiens, UniProt P29597); test: Kinase profiling, Tyk2; type: biochemical; settings: non-cell-based, [γ-33P-ATP], 2% DMSO, no pre-incubation, Fig. 6i
T4 construct: purchased Eurofins (France), KinaseProfiler service
Protocol: as §1

Lck [1] = test: Kinase profiling, Lck; type: biochemical; settings: Eurofins KinaseProfiler, [γ-33P-ATP] scintillation, 0.003-10 uM, 2% DMSO, no pre-incubation, Fig. 6c, 6e
Protocol: Non-cell-based kinase profiling assays were performed by Eurofins (France). All compounds were prepared to 50 × final assay concentration in 100% DMSO. This working stock of the compound was added to assay wells as the first component in the reaction, followed by the remaining components as detailed in the specific assay protocols below. In the standard KinaseProfiler service, there was no pre-incubation step between the compound and the kinase prior to initiation of the reaction. Control wells contained all components of the reaction, except the compound of interest; however, DMSO (at a final concentration of 2%) was included in these wells to control for solvent effects. […] The reference inhibitors for each kinase are indicated in the methods for each kinase assay. […] Kinase activities were assessed in the presence of compounds at a concentration range of 0.003 -10 uM and the following kinases were tested: c-Src, Lck, Jak1, Jak2, Tyk2, CaMKIV and HPK1 (MAP4K1). Reactions between IK14004, substrates and MgAcetate/[γ^33P-ATP] mixes for each respective kinase were stopped by the addition of phosphoric acid and reaction mixtures spotted on P30 filtermats for scintillation according to the detailed methods available from Eurofins. The activities of Lck and c-Src were also assessed in the presence of the unconjugated components of IK14004, i.e., […] (IK14000) and the dodecanoic acid moiety [(2)Adod]4 (IK00041) and a lipidic peptide containing substituted amino acid residues (IK14DE04).

CD3+ T cell cultures = test: Cytokine ELISA on supernatants of isolated CD3+ T cell cultures; type: cell-based, human
Protocol: CD3^+ T cells were isolated from PBMCs by negative selection using immune-magnetic separation (Stem cell kits), resuspended in complete medium as used for PBMCs at 0.5 × 10^6/mL and plated at a density of 5 × 10^4 per well (100 µL) in 96-well, flat bottom culture plates. CD4^+ and CD8^+ T cell populations were isolated by immunomagnetic separation and resuspended in RPMI-10 at 0.5 × 10^6/mL with a plating density of 0.5 × 10^5 per well. Either the lipidic peptide, IK14004, or IK14000 ([…]) was added to wells at a final volume of 50 µL per well, together with anti-CD3 anti-CD28 coated Dynabeads (ThermoFisher) at a 4:1 cell:bead ratio (1.25 × 10^4/well, 50 µL volume) and cells cultured for 72 h at 37 °C and 5% CO2.
Supernatants were obtained from PBMC and isolated CD3+ T cells cultures to assess production of IL-2, IL-12p70, IL-10 and IFN-γ (ThermoFisher kits) and IL-12p40 (Biolegend). […] ELISA plates were read at 450 nm using an Infinite F50 (Tecan) absorbance reader and Magellan™ reader control and data analysis software. Flow cytometry data was exported as FCS files from Attune™ NxT software and analysed using FlowJo™ software, from which data were tabulated for export to Microsoft Excel. […]
For flow cytometry and ELISA experiments, data from IK14004 and vehicle groups were analysed using parametric statistical procedures. […]

Lck [2] = settings: in vitro; read-out: IC50, inhibition of Lck activity; cited from earlier work
IL-2 production = settings: cited from earlier work
c-Src = test: Kinase profiling, c-Src; type: biochemical; settings: Eurofins KinaseProfiler, [γ-33P-ATP] scintillation, 0.003-10 uM, 2% DMSO, no pre-incubation; Fig. 6d (IK14004 at concentrations below 3 µM), Fig. 6e
Protocol: as §1

CD40L expression = settings: 48 h, in vitro; cited from earlier work
From the text: An integrated understanding of how IL-2 and TCR co-stimulatory signals combine to control homeostasis in distinct tissue locations is lacking. The effects of IK14004 on cytokine production are shown in the Schematic (Fig. 7) together with putative effects on kinase-mediated signalling pathways involved in production of these cytokines. Maturation of DCs involves CD40L-CD40 interactions dependent upon T helper expression of CD40L[21],[22].

[3] = blank wells, baseline 0% kinase activity remaining

T3 sequence (P23458 whole entry): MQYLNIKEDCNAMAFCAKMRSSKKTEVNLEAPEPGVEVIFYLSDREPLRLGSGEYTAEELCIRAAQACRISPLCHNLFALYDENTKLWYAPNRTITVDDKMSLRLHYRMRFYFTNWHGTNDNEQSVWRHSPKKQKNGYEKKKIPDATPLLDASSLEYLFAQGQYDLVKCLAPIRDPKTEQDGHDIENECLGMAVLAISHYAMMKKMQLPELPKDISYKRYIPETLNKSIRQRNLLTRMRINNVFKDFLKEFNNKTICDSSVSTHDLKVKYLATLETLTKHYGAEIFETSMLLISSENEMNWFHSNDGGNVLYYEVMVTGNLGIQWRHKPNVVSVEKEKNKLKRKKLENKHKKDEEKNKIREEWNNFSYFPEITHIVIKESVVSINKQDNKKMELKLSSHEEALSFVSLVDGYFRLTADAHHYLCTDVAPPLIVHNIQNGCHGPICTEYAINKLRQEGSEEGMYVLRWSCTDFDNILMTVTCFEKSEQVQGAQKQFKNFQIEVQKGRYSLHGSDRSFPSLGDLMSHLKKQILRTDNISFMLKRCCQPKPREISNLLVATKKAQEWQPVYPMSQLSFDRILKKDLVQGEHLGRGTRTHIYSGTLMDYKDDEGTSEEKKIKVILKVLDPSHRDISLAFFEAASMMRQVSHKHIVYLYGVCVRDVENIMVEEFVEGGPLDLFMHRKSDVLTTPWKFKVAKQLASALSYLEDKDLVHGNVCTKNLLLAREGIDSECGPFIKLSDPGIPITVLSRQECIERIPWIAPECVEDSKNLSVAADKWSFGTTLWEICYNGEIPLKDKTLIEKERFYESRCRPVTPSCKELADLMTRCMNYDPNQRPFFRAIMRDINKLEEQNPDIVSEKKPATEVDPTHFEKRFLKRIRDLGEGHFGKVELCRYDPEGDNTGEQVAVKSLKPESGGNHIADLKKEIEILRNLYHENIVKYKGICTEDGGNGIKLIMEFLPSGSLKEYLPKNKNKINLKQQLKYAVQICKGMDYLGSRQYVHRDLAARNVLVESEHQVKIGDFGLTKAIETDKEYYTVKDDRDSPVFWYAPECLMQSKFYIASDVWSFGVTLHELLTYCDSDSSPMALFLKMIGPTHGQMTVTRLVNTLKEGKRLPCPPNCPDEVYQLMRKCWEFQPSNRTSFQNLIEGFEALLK
T1 sequence (Q92918 whole entry): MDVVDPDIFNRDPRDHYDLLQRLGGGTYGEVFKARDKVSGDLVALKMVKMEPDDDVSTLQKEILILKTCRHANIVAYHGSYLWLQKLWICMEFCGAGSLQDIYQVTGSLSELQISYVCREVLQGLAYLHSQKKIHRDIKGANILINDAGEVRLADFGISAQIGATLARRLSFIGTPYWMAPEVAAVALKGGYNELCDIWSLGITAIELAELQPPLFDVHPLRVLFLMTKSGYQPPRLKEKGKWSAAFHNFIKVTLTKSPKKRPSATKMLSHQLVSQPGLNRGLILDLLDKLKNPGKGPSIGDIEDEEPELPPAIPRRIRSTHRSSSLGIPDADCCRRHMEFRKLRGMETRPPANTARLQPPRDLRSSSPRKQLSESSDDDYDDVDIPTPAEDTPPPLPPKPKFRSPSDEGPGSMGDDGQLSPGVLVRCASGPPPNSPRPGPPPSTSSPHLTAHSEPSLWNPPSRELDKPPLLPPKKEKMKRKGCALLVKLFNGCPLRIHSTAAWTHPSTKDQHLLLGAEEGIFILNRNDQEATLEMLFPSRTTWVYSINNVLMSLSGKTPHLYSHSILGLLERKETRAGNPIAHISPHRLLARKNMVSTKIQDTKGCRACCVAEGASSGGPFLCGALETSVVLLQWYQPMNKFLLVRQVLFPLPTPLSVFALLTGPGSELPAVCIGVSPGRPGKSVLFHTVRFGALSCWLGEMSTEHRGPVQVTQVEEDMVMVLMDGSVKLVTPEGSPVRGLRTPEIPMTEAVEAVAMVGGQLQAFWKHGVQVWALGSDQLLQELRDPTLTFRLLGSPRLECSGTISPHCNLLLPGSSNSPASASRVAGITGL
T4 sequence (P29597 whole entry): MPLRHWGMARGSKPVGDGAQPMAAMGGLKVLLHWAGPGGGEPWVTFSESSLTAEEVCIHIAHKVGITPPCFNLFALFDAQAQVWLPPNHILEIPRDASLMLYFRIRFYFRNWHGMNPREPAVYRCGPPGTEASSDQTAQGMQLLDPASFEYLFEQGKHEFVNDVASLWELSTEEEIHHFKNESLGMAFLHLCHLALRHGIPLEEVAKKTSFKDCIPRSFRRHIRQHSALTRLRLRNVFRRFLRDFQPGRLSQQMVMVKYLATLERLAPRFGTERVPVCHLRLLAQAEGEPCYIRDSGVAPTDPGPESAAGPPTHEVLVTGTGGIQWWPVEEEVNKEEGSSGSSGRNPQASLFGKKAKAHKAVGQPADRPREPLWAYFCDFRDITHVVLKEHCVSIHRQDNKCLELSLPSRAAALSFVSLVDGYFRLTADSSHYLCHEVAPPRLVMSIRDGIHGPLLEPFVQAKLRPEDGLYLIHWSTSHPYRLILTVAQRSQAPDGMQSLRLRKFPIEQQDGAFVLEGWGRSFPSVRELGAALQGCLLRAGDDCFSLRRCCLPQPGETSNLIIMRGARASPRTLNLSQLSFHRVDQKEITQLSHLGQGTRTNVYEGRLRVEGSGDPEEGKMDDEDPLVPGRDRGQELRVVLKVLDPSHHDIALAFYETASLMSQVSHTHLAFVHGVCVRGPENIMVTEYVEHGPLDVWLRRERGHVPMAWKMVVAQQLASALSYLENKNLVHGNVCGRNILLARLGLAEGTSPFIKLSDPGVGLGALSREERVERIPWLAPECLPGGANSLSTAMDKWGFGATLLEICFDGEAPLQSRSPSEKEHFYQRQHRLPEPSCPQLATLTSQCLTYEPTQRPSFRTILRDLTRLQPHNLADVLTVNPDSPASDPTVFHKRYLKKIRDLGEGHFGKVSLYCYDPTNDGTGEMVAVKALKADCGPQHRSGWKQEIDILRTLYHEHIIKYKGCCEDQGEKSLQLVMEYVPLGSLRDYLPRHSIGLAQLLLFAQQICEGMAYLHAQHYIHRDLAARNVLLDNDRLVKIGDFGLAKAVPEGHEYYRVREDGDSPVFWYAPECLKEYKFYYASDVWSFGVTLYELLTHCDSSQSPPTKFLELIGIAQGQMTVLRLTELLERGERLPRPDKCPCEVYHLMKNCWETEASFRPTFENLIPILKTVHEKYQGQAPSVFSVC

For CCCCCCCCCC[C@H](NC(=O)[C@H](CCCCCCCCCC)NC(=O)[C@H](CCCCCCCCCC)NC(=O)[C@H](CCCCCCCCCC)NC(=O)[C@H](CCCNC(=N)N)NC(=O)[C@H](Cc1ccc(O)cc1)NC(=O)[C@H](CC(C)C)NC(=O)[C@@H]1CCCN1C(=O)[C@H](CC(N)=O)NC(=O)[C@H](CCCCN)NC(=O)[C@H](C)NC(=O)[C@H](CCCCN)NC(=O)[C@H](CO)NC(=O)[C@@H](N)CCCNC(=N)N)C(N)=O [IK14004] (H-RSKAKNPLYR[Gly(decyl)][Gly(decyl)][Gly(decyl)][Gly(decyl)]-NH2), the IC50 (HPK1 (MAP4K1); non-cell-based, [γ-33P-ATP], 2% DMSO, no pre-incubation, Fig. 6f) was roughly 1 µM, the IC50 (CaMKIV; non-cell-based, [γ-33P-ATP], 2% DMSO, no pre-incubation, Fig. 6h) was 3 µM and the IC50 (JAK1; non-cell-based, [γ-33P-ATP], 2% DMSO, no pre-incubation, Fig. 6i) was 3 µM. For the same molecule, the IC50 (Tyk2) was 1 µM.

With [(2)Adod]4 [IK00041] the Lck activity (Lck [1]) was “neither IK14000 nor IK00041 had an effect”.

For COc1cc(-c2nn([C@H]3CC[C@H](N4CCN(C(C)=O)CC4)CC3)c3ncnc(N)c23)ccc1NC(=O)c1cc2ccccc2n1C [A-770041], the “IL-2 in supernatant of CD3+ T cell cultures, A-770041” value (CD3+ T cell cultures; 0.1 µM in 0.1% DMSO, anti-CD3/anti-CD28, 72 h, ELISA, 7 experimental replicates, paired t-test **P < 0.01, Fig. 6a) is given as “induced IL-2 production”, the “IL-2 level relative to IK14004” value (CD3+ T cell cultures; A-770041 0.1 µM versus IK14004 (0.16 uM), 72 h, Fig. 6a vs 1f) is given as “much greater level than in the presence of IK14004” and the IC50 (Lck [2]) is given as 0.147 µM. The “IL-2 production, whole blood” value (IL-2 production; heparinised whole blood exposed to anti-CD3 plus PMA, ref Stachlewitz and colleagues [66]) was “inhibition of IL-2 production” and the IC50 (IL-2 production; read-out: IC50, inhibition of IL-2 production, in vitro) was 0.08 µM.

In the case of CN[C@@H]1C[C@H]2O[C@@](C)([C@@H]1OC)n1c3ccccc3c3c4c(c5c6ccccc6n2c5c31)C(=O)NC4 [staurosporine, reference compound], the “HPK1 activity, reference inhibitor” value (HPK1 (MAP4K1); [3]) is reported as “abolished kinase activity”, the “CaMKIV activity, reference inhibitor” value (CaMKIV; [3]) is reported as “abolished kinase activity” and the “JAK1 activity, reference inhibitor” value (JAK1; [3]) is reported as “abolished kinase activity”.

For DSEAENPLYD [IK14DE04], the Lck activity (Lck [1]) was “abolished the effects of IK14004” and the c-Src activity (c-Src) was “abolished the effects of IK14004”.

B1: daclizumab: a humanised anti-CD25 mAb (antibody, chains of the INN, looked up, V domains shown)
VH: QVQLVQSGAEVKKPGSSVKVSCKASGYTFTSYRMHWVRQAPGQGLEWIGYINPSTGYTEYNQKFKDKATITADESTNTAYMELSSLRSEDTAVYYCARGGGVFDYWGQGTLVTVSS
VL: DIQMTQSPSTLSASVGDRVTITCSASSSISYMHWYQQKPGKAPKLLIYTTSNLASGVPARFSGSGSGTEFTLTISSLQPDDFATYYCHQRSTYPLTFGQGTKVEVK
For B1, the “CD40L expression at later time points” value (CD40L expression) is given as “inhibitable”.
